Measurements taken from ChEMBL document CHEMBL1201862, “PubChem BioAssay data set” (2004).
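Protocol summary: plate cells (96-well), add compound at 5 concentrations, incubate 48 h, interpolate endpoints linearly. The concentration for 50% growth inhibition is given as GI50.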 Activity calls are given as the source filed them. Rule as the data show it: active = GI50 up to about 1.1 µM and inactive = higher.

Key:
Assay in all cases: growth of human tumour cells (NCI), 48 h
T47D = test system: T47D
NCI/ADR-RES = test system: NCI/ADR-RES
UACC-257 = test system: UACC-257
MCF7 = test system: MCF7
NCI-H23 = test system: NCI-H23
Malme-3M = test system: Malme-3M
SK-MEL-5 = test system: SK-MEL-5
SF-295 = test system: SF-295
SK-MEL-28 = test system: SK-MEL-28
Hs-578T = test system: Hs-578T
TK-10 = test system: TK-10
MDA-N = test system: MDA-N
OVCAR-4 = test system: OVCAR-4
PC-3 = test system: PC-3
MOLT-4 = test system: MOLT-4
786-0 = test system: 786-0

SMILES | GI50 (T47D) | GI50 (NCI/ADR-RES) | GI50 (UACC-257) | GI50 (MCF7) | GI50 (NCI-H23) | GI50 (Malme-3M) | GI50 (SK-MEL-5) | GI50 (SF-295) | GI50 (SK-MEL-28) | GI50 (Hs-578T) | GI50 (TK-10) | GI50 (MDA-N) | GI50 (OVCAR-4) | GI50 (PC-3) | GI50 (MOLT-4) | GI50 (786-0)
CC1=NN(C(=O)CC(=O)Nc2cccc(C)c2)C(=O)C1/N=N\c1ccc(S(=O)(=O)c2ccc(/N=N/C3C(=O)N(C(=O)CC(=O)Nc4cccc(C)c4)N=C3C)cc2)cc1 (configuration not stated) | > 100 µM (inactive) | > 100 µM (inactive) | > 100 µM (inactive) | > 100 µM (inactive) | > 100 µM (inactive) | 85.5 µM (inactive) | > 100 µM (inactive) | > 100 µM (inactive) | > 100 µM (inactive) | > 100 µM (inactive) | > 100 µM (inactive) | > 100 µM (inactive) | > 100 µM (inactive) | > 100 µM (inactive) | > 100 µM (inactive) | > 100 µM (inactive)
CC(=O)OCC1OC(O[C@@H]2C[C@H]3C(C)(C)[C@H](OC(C)=O)CC[C@]3(C)[C@H]3CC[C@@]45C[C@H](O)C[C@H](C)[C@@H]4CC=C5[C@@]32C)C(O)C(O)C1O (some centres not stated) | 3.43 µM (inactive) | 16 µM (inactive) | 4.72 µM (inactive) | 4.04 µM (inactive) | 4.56 µM (inactive) | 6.92 µM (inactive) | 3.24 µM (inactive) | 3.66 µM (inactive) | 7.19 µM (inactive) | 4.6 µM (inactive) | 8.93 µM (inactive) | 3.61 µM (inactive) | 4.21 µM (inactive) | 3.03 µM (inactive) | 2.32 µM (inactive) | 3.83 µM (inactive)
COc1ccc(C(C)NNC(=O)c2ccncc2)c(OC)c1 (configuration not stated) | > 100 µM (inactive) | > 100 µM (inactive) | > 100 µM (inactive) | > 100 µM (inactive) | > 100 µM (inactive) | > 100 µM (inactive) | > 100 µM (inactive) | > 100 µM (inactive) | > 100 µM (inactive) | > 100 µM (inactive) | > 100 µM (inactive) | > 100 µM (inactive) | > 100 µM (inactive) | > 100 µM (inactive) | > 100 µM (inactive) | > 100 µM (inactive)
CC(C)(C)C(=O)C(CC(=O)c1ccccc1)C(=O)C(C)(C)C | > 100 µM (inactive) | > 100 µM (inactive) | > 100 µM (inactive) | > 100 µM (inactive) | > 100 µM (inactive) | > 100 µM (inactive) | > 100 µM (inactive) | > 100 µM (inactive) | > 100 µM (inactive) | 77.3 µM (inactive) | > 100 µM (inactive) | > 100 µM (inactive) | > 100 µM (inactive) | > 100 µM (inactive) | > 100 µM (inactive) | > 100 µM (inactive)
C1=CC2C=CC(C=C1)P2c1ccccc1 (configuration not stated) | > 100 µM (inactive) | > 100 µM (inactive) | > 100 µM (inactive) | > 100 µM (inactive) | > 100 µM (inactive) | > 100 µM (inactive) | > 100 µM (inactive) | > 100 µM (inactive) | > 100 µM (inactive) | > 100 µM (inactive) | > 100 µM (inactive) | > 100 µM (inactive) | > 100 µM (inactive) | > 100 µM (inactive) | > 100 µM (inactive) | > 100 µM (inactive)
CC(=O)N1c2ccccc2C2=NN=C(N(C)C)SC21 (configuration not stated) | 3.52 µM (inactive) | 2.75 µM (inactive) | 3.64 µM (inactive) | 4.06 µM (inactive) | 5.19 µM (inactive) | 3.37 µM (inactive) | – | 2.41 µM (inactive) | 3.47 µM (inactive) | 13.5 µM (inactive) | 9.06 µM (inactive) | 3.33 µM (inactive) | 10.4 µM (inactive) | 2.84 µM (inactive) | 3.09 µM (inactive) | 2.48 µM (inactive)
O=C1C(N2CCOCC2)=C(Cl)C(=O)c2ncccc21 | 1.99 µM (inactive) | 8.49 µM (inactive) | 1.73 µM (inactive) | 1.81 µM (inactive) | 1.6 µM (inactive) | 1.89 µM (inactive) | 1.82 µM (inactive) | > 10 µM (inactive) | 2.2 µM (inactive) | 3.99 µM (inactive) | 1.98 µM (inactive) | 1.97 µM (inactive) | 1.56 µM (inactive) | > 9.62 µM (inactive) | 0.443 µM (active) | 1.84 µM (inactive)
Oc1ccc2c(c1)CCc1c-2n(CCN2CCOCC2)c2ccc(O)cc12 | 31.1 µM (inactive) | 21 µM (inactive) | 37.2 µM (inactive) | 23.5 µM (inactive) | 27.7 µM (inactive) | 25.3 µM (inactive) | 15.7 µM (inactive) | 47.2 µM (inactive) | 29.3 µM (inactive) | 32.8 µM (inactive) | 36.7 µM (inactive) | 45.3 µM (inactive) | – | 35.3 µM (inactive) | 33.4 µM (inactive) | 43.5 µM (inactive)
CN1CCCC2C(c3ccccc3)C(C3=NCCCC3)C(c3ccccc3)CC21 (configuration not stated) | > 100 µM (inactive) | 53.8 µM (inactive) | 19.1 µM (inactive) | 56.6 µM (inactive) | 64.7 µM (inactive) | 19.6 µM (inactive) | 16.9 µM (inactive) | 49.2 µM (inactive) | 16.2 µM (inactive) | 21.7 µM (inactive) | > 100 µM (inactive) | 20.2 µM (inactive) | 73.6 µM (inactive) | 44.7 µM (inactive) | 31.3 µM (inactive) | 24.5 µM (inactive)
CCCN(C(=O)c1ccccc1)C(C#N)c1ccc(C(C#N)N(CCC)C(=O)c2ccccc2)cc1 (configuration not stated) | 11.2 µM (inactive) | 38.5 µM (inactive) | > 100 µM (inactive) | > 100 µM (inactive) | > 100 µM (inactive) | > 100 µM (inactive) | 92.5 µM (inactive) | 42.4 µM (inactive) | – | 24.9 µM (inactive) | > 100 µM (inactive) | > 100 µM (inactive) | 14.5 µM (inactive) | 68.9 µM (inactive) | > 100 µM (inactive) | 38.1 µM (inactive)
Cn1c(=O)[nH]n(-c2ccc3ccccc3c2)c1=O | > 100 µM (inactive) | > 100 µM (inactive) | > 100 µM (inactive) | > 100 µM (inactive) | > 100 µM (inactive) | > 100 µM (inactive) | > 100 µM (inactive) | > 100 µM (inactive) | > 100 µM (inactive) | > 100 µM (inactive) | > 100 µM (inactive) | > 100 µM (inactive) | > 100 µM (inactive) | > 100 µM (inactive) | – | > 100 µM (inactive)
Nc1nc(=O)n(C2OC(CO)C(O)C2O)c2ncc(-c3ccc(-c4ccccc4)cc3)nc12 (configuration not stated) | > 100 µM (inactive) | > 100 µM (inactive) | > 100 µM (inactive) | 31.3 µM (inactive) | > 100 µM (inactive) | > 100 µM (inactive) | > 100 µM (inactive) | > 100 µM (inactive) | – | > 100 µM (inactive) | > 100 µM (inactive) | > 100 µM (inactive) | > 100 µM (inactive) | > 100 µM (inactive) | > 100 µM (inactive) | 28.4 µM (inactive)
COC(=O)c1ccccc1NC(=S)NN(C)C | > 100 µM (inactive) | > 100 µM (inactive) | > 100 µM (inactive) | > 100 µM (inactive) | > 100 µM (inactive) | > 100 µM (inactive) | – | > 100 µM (inactive) | > 100 µM (inactive) | > 100 µM (inactive) | > 100 µM (inactive) | > 100 µM (inactive) | > 100 µM (inactive) | > 100 µM (inactive) | > 100 µM (inactive) | > 100 µM (inactive)
CC1=CC(=O)N(n2c(Cc3ccc(Cl)cc3)n[nH]c2=O)C1=O | 35.4 µM (inactive) | > 100 µM (inactive) | > 100 µM (inactive) | 30.5 µM (inactive) | 92.3 µM (inactive) | 94.2 µM (inactive) | 46 µM (inactive) | 28.4 µM (inactive) | – | 35.4 µM (inactive) | 98.9 µM (inactive) | 44.7 µM (inactive) | 38.6 µM (inactive) | 26.4 µM (inactive) | 20.8 µM (inactive) | 60.5 µM (inactive)
COc1ccc(C2CCc3c(cnc4nc(N)nc(N)c34)C2)cc1 (configuration not stated) | 31 µM (inactive) | > 100 µM (inactive) | > 100 µM (inactive) | 15.8 µM (inactive) | – | 18.9 µM (inactive) | 11 µM (inactive) | 7.26 µM (inactive) | 96.4 µM (inactive) | 40.8 µM (inactive) | 12.8 µM (inactive) | 1.04 µM (active) | > 100 µM (inactive) | > 100 µM (inactive) | 9.48 µM (inactive) | 3.7 µM (inactive)
O=S(=O)(O)c1ccc2cccc(/N=N\c3c(O)ccc4ccccc34)c2c1 | > 100 µM (inactive) | > 100 µM (inactive) | > 100 µM (inactive) | > 100 µM (inactive) | > 100 µM (inactive) | > 100 µM (inactive) | > 100 µM (inactive) | > 100 µM (inactive) | – | > 100 µM (inactive) | > 100 µM (inactive) | > 100 µM (inactive) | > 100 µM (inactive) | > 100 µM (inactive) | > 100 µM (inactive) | > 100 µM (inactive)
O=C(O)Cn1ccc(=O)c2ccc([N+](=O)[O-])cc21 | > 100 µM (inactive) | > 100 µM (inactive) | > 100 µM (inactive) | > 100 µM (inactive) | > 100 µM (inactive) | > 100 µM (inactive) | > 100 µM (inactive) | > 100 µM (inactive) | > 100 µM (inactive) | > 100 µM (inactive) | > 100 µM (inactive) | > 100 µM (inactive) | – | > 100 µM (inactive) | > 100 µM (inactive) | > 100 µM (inactive)
